Experimental findings from patent US11434258B2, “Compounds (immunorhelins)” (ISR IMMUNE SYSTEM REGULATION HOLDING AB (PUBL), priority 2017, dated 2022) are described below.

Non-standard residues stand in square brackets, D forms with d. Residues, ends and D or L forms follow the SMILES beside them. *: point of attachment. d2Nal = N[C@H](Cc1ccc2ccccc2c1)C(=O)O; pGlu = O=C1CC[C@@H](C(=O)O)N1; tBu = CC(C)(C)* Bounds are passed on as bounds.

One data set has as its target T1, GnRHR (Homo sapiens, UniProt P30968).
T1 construct: host or cells: CHO-K1 (CHO-K1/GnRHR/Ga15)
T1 sequence (P30968 1-328): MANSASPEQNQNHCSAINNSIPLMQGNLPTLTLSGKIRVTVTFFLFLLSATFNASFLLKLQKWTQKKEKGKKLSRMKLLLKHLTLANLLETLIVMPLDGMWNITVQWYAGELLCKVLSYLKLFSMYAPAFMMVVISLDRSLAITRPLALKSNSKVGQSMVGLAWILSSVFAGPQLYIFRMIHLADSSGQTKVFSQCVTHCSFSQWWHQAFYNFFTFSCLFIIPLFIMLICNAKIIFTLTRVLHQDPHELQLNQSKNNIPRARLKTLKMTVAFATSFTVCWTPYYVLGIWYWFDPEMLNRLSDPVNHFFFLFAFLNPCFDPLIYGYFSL
The data set is described as follows: Calcium assay in CHO-K1 cells (Genscript), FLIPR. Format: cell-based. The settings on record: CHO-K1/GnRHR/Ga15 cells, relative to agonist control, read-out: GNRHR Stimulation at 1 μM. The protocol:
Test article sample solutions were dissolved in HBSS buffer (with 20 mM HEPES buffer, pH 7.4) to form the 5× working solution. FLIPR® Calcium 4 assay kit from Molecular devices (R8141) was used as required. In brief, CHO-K1 cells expressing GnRHR (CHO-K1/GnRHR/Ga15, Genscript accession NM_000406) were respectively cultured in the 10-cm dishes and maintained at 37° C./5% CO2. CHO-K1 cells expressing GNRHR were respectively seeded in a 384-well black-wall, clear-bottom plate at a density of 15,000 cells per well in 20 μl of growth medium about 18 hours prior to the day of experiment and maintained at 37° C./5% CO2. Then, 20 μl of dye loading solution was added into the wells and the plates were subsequently placed into a 37° C. incubator for 60 minutes, followed by a 15 minutes' incubation at room temperature. At last, 10 μl of compounds or control agonist were added into respective wells of the assay plate during reading in FLIPR. The plate containing 5× compound and control agonist solution was placed in FLIPR. Solutions were added into the cell plate automatically at the 20 seconds and the fluorescence signal was monitored for an additional 100 seconds (21 sec to 120 sec.). Data were recorded by ScreenWorks (version 3.1) as FMD files with FLIPR and stored on the GenScript computer network for off-line analysis. Data acquisition and analyses was performed using ScreenWorks (version 3.1) program and exported to Excel. The average value of the first 20 seconds' reading was calculated as the baseline and the relative fluorescent units (ΔRFU) intensity values were calculated by subtracting the average value of baseline from the maximum fluorescent units (21 s to 120 s).
The % Stimulation was calculated with the following equation: % Stimulation=(ΔRFUCompound−ΔRFUBackground)/(ΔRFUAgonist control−ΔRFUBackground)×100
Dose response curves were fitted with four-parameter-logistic-equation by the software GraphPad Prism 6.
Equation: four parameter logistic equation. Y=Bottom+(Top-Bottom)/(1+10^((Log EC50−X)×Hillslope))
X is the logarithm of concentration. Y is the response.

The nature of data set [1]: Stability in aqueous media (PBS pH 7.4). The format is physicochemical. Also noted: unit not given here. The settings on record: phosphate buffer solution (PBS); PBS pH 7.4, 37° C., samples at T=0, 4, 24, 96 h; read-out: Stability grading (t1/2). The text has this: LC/MS data was collected for compound identity.

Consider `CCNC(=O)[C@@H]1CCCN1C(=O)[C@H](CCCNC(=N)N)NC(=O)[C@H](CC(C)C)NC(=O)[C@@H](COC(C)(C)C)NC(=O)[C@H](Cc1ccc(O)cc1)NC(=O)[C@H](CO)NC(=O)[C@H](Cc1c[nH]c2ccccc12)NC(=O)[C@H](Cc1cnc[nH]1)NC(=O)[C@@H]1CCC(=O)N1` [Buserelin, reference compound], for which, on GnRHR, the activation at 1 µM is 94%.

For `CCNC(=O)[C@@H]1CCCN1C(=O)[C@H](CCCNC(=N)N)NC(=O)[C@H](Cc1c[nH]c2ccccc12)NC(=O)[C@@H](COC(C)(C)C)NC(=O)[C@H](Cc1ccc(O)cc1)NC(=O)[C@H](CO)NC(=O)[C@H](Cc1c[nH]c2ccccc12)NC(=O)[C@H](Cc1c[nH]cn1)NC(=O)[C@@H]1CCC(=O)N1` [Compound 8, pGlu-His-Trp-Ser-Tyr-D-Ser(tBu)-Trp-Arg-Pro-NHEt] ([pGlu]HWSY[dS](tBu)WRP-NHEt), the activation at 1 µM at GnRHR was 86%. In data set [1], the half-life at 0.2 mg/ml is > 96.

For `CCNC(=O)[C@@H]1CCCN1C(=O)[C@H](Cc1ccc(O)cc1)NC(=O)[C@H](Cc1c[nH]c2ccccc12)NC(=O)[C@@H](COC(C)(C)C)NC(=O)[C@H](Cc1ccc(O)cc1)NC(=O)[C@H](CO)NC(=O)[C@H](Cc1c[nH]c2ccccc12)NC(=O)[C@H](Cc1c[nH]cn1)NC(=O)[C@@H]1CCC(=O)N1` [Compound 12, pGlu-His-Trp-Ser-Tyr-D-Ser(tBu)-Trp-Tyr-Pro-NHEt] ([pGlu]HWSY[dS](tBu)WYP-NHEt), at GnRHR, the activation at 1 µM stood at 80%. Moreover, in data set [1], the half-life at 0.2 mg/ml is > 96.

Take `CCNC(=O)[C@@H]1CCCN1C(=O)[C@H](Cc1ccc(O)cc1)NC(=O)[C@H](Cc1c[nH]c2ccccc12)NC(=O)[C@@H](COC(C)(C)C)NC(=O)[C@H](Cc1c[nH]cn1)NC(=O)[C@H](CO)NC(=O)[C@H](Cc1c[nH]c2ccccc12)NC(=O)[C@H](Cc1c[nH]cn1)NC(=O)[C@@H]1CCC(=O)N1` [Compound 13, pGlu-His-Trp-Ser-His-D-Ser(tBu)-Trp-Tyr-Pro-NHEt] ([pGlu]HWSH[dS](tBu)WYP-NHEt): the activation at 1 µM at GnRHR was determined as 87%. Besides, in data set [1], the half-life at 0.2 mg/ml is > 96.

On to `CC(C)C[C@H](NC(=O)[C@@H](Cc1c[nH]c2ccccc12)NC(=O)[C@H](Cc1ccc(O)cc1)NC(=O)[C@H](CO)NC(=O)[C@H](Cc1c[nH]c2ccccc12)NC(=O)[C@H](Cc1c[nH]cn1)NC(=O)[C@@H]1CCC(=O)N1)C(=O)N[C@@H](Cc1ccc(O)cc1)C(=O)N1CCC[C@H]1C(=O)NCC(N)=O` [Compound 14, pGlu-His-Trp-Ser-Tyr-D-Trp-Leu-Tyr-Pro-Gly-amide] ([pGlu]HWSY[dW]LYPG-NH2), for which the activation at 1 µM at GnRHR turned out to be 78%. Moreover, in data set [1], the half-life at 0.2 mg/ml was > 96.

Take `CC(C)C[C@H](NC(=O)[C@@H](Cc1c[nH]c2ccccc12)NC(=O)[C@H](Cc1c[nH]cn1)NC(=O)[C@H](CO)NC(=O)[C@H](Cc1c[nH]c2ccccc12)NC(=O)[C@H](Cc1c[nH]cn1)NC(=O)[C@@H]1CCC(=O)N1)C(=O)N[C@@H](Cc1ccc(O)cc1)C(=O)N1CCC[C@H]1C(=O)NCC(N)=O` [Compound 16, pGlu-His-Trp-Ser-His-D-Trp-Leu-Tyr-Pro-Gly-amide] ([pGlu]HWSH[dW]LYPG-NH2): at GnRHR, the activation at 1 µM came to 76%. Also, the half-life at 0.2 mg/ml in data set [1] is > 96.

`N=C(N)NCCC[C@H](NC(=O)[C@H](Cc1c[nH]c2ccccc12)NC(=O)[C@@H](Cc1c[nH]c2ccccc12)NC(=O)[C@H](Cc1c[nH]cn1)NC(=O)[C@H](CO)NC(=O)[C@H](Cc1c[nH]c2ccccc12)NC(=O)[C@H](Cc1c[nH]cn1)NC(=O)[C@@H]1CCC(=O)N1)C(=O)N1CCC[C@H]1C(=O)NCC(N)=O` [Compound 20, pGlu-His-Trp-Ser-His-D-Trp-Trp-Arg-Pro-NHEt]: the activation at 1 µM on GnRHR came out at 75%. Also, in data set [1], the half-life at 0.2 mg/ml was > 96.

On to `CC(C)C[C@H](NC(=O)[C@@H](Cc1ccc2ccccc2c1)NC(=O)[C@H](Cc1ccc(O)cc1)NC(=O)[C@H](CO)NC(=O)[C@H](Cc1c[nH]c2ccccc12)NC(=O)[C@H](Cc1c[nH]cn1)NC(=O)[C@@H]1CCC(=O)N1)C(=O)N[C@@H](Cc1ccc(O)cc1)C(=O)N1CCC[C@H]1C(=O)NCC(N)=O` [Compound 25, pGlu-His-Trp-Ser-Tyr-D-Nal-Leu-Tyr-Pro-Gly-amide] ([pGlu]HWSY[d2Nal]LYPG-NH2), for which the activation at 1 µM on GnRHR was found to be 82%. Besides, in data set [1], the half-life at 0.2 mg/ml is < 96.

With `CC(C)C[C@H](NC(=O)[C@@H](Cc1ccc2ccccc2c1)NC(=O)[C@H](Cc1c[nH]cn1)NC(=O)[C@H](CO)NC(=O)[C@H](Cc1c[nH]c2ccccc12)NC(=O)[C@H](Cc1c[nH]cn1)NC(=O)[C@@H]1CCC(=O)N1)C(=O)N[C@@H](Cc1ccc(O)cc1)C(=O)N1CCC[C@H]1C(=O)NCC(N)=O` [Compound 28, pGlu-His-Trp-Ser-His-D-Nal-Leu-Tyr-Pro-Gly-amide] ([pGlu]HWSH[d2Nal]LYPG-NH2), at GnRHR, the activation at 1 µM was determined as 95%. Also, the half-life at 0.2 mg/ml in data set [1] is > 96.

Turning to `NC(=O)CNC(=O)[C@@H]1CCCN1C(=O)[C@H](Cc1ccc(O)cc1)NC(=O)[C@H](Cc1c[nH]c2ccccc12)NC(=O)[C@@H](Cc1ccc2ccccc2c1)NC(=O)[C@H](Cc1c[nH]cn1)NC(=O)[C@H](CO)NC(=O)[C@H](Cc1c[nH]c2ccccc12)NC(=O)[C@H](Cc1c[nH]cn1)NC(=O)[C@@H]1CCC(=O)N1` [Compound 33, pGlu-His-Trp-Ser-His-D-Nal-Trp-Tyr-Pro-Gly-amide] ([pGlu]HWSH[d2Nal]WYPG-NH2), the activation at 1 µM at GnRHR came out at 67%. In addition, in data set [1], the half-life at 0.2 mg/ml was < 96.

Consider `CCNC(=O)[C@@H]1CCCN1C(=O)[C@H](CCCNC(=N)N)NC(=O)[C@H](Cc1c[nH]c2ccccc12)NC(=O)[C@@H](CC(C)C)NC(=O)[C@H](Cc1ccc(O)cc1)NC(=O)[C@H](CO)NC(=O)[C@H](Cc1c[nH]c2ccccc12)NC(=O)[C@H](Cc1c[nH]cn1)NC(=O)[C@@H]1CCC(=O)N1` [Compound 44, pGlu-His-Trp-Ser-Tyr-D-Leu-Trp-Arg-Pro-NHEt] ([pGlu]HWSY[dL]WRP-NHEt), for which the activation at 1 µM at GnRHR came out at 111%. Also, in data set [1], the half-life at 0.2 mg/ml was > 96.

As for `CC(C)C[C@H](NC(=O)CNC(=O)[C@H](Cc1ccc(O)cc1)NC(=O)[C@H](CO)NC(=O)[C@H](Cc1c[nH]c2ccccc12)NC(=O)[C@H](Cc1cnc[nH]1)NC(=O)[C@@H]1CCC(=O)N1)C(=O)N[C@@H](CCCNC(=N)N)C(=O)N1CCC[C@H]1C(=O)NCC(N)=O` [Gonadorelin, reference compound], the activation at 1 µM on GnRHR is 102%.

As to `CC(C)C[C@H](NC(=O)[C@@H](COC(C)(C)C)NC(=O)[C@H](Cc1ccc(O)cc1)NC(=O)[C@H](CO)NC(=O)[C@H](Cc1c[nH]c2ccccc12)NC(=O)[C@H](Cc1cnc[nH]1)NC(=O)[C@@H]1CCC(=O)N1)C(=O)N[C@@H](CCCNC(=N)N)C(=O)N1CCC[C@H]1C(=O)NNC(N)=O` [Goserelin], the activation at 1 µM on GnRHR came out at 99%.

On to `CCNC(=O)[C@@H]1CCCN1C(=O)[C@H](CCCNC(=N)N)NC(=O)[C@H](CC(C)C)NC(=O)[C@@H](CC(C)C)NC(=O)[C@H](Cc1ccc(O)cc1)NC(=O)[C@H](CO)NC(=O)[C@H](Cc1c[nH]c2ccccc12)NC(=O)[C@H](Cc1c[nH]cn1)NC(=O)[C@@H]1CCC(=O)N1` [Leuprorelin, reference compound], for which, on GnRHR, the activation at 1 µM stood at 107%.

As for `CC(C)C[C@H](NC(=O)[C@@H](Cc1ccc2ccccc2c1)NC(=O)[C@H](Cc1ccc(O)cc1)NC(=O)[C@H](CO)NC(=O)[C@H](Cc1c[nH]c2ccccc12)NC(=O)[C@H](Cc1c[nH]cn1)NC(=O)[C@@H]1CCC(=O)N1)C(=O)N[C@@H](CCCNC(=N)N)C(=O)N1CCC[C@H]1C(=O)NCC(N)=O` [Nafarelin, reference compound], on GnRHR, the activation at 1 µM was 100%.
